Source: PubChem BioAssay (NCI)
Several values for one entry are separate records, joined by “and”; a condition that tells them apart may be missing. Equal entries are not always repeated.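 Grown in 96-well plates, cells were treated for 48 hours with each compound at five concentrations. Insufficient inhibition: endpoint recorded as highest concentration tested. GI50 marks 50% less growth. Definition used: TGI = concentration required for complete inhibition of growth.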

Key:
Experiment in all cases: NCI anticancer screen, dose series, 48 h
TK-10 renal = system: TK-10 renal
SK-MEL-28 melanoma = system: SK-MEL-28 melanoma
SK-MEL-5 melanoma = system: SK-MEL-5 melanoma
RPMI-8226 leukemia = system: RPMI-8226 leukemia
SNB-75 CNS = system: SNB-75 CNS
SW-620 colon = system: SW-620 colon
KM12 colon = system: KM12 colon
NCI-H460 lung = system: NCI-H460 lung
HOP-92 NSCLC = system: HOP-92 NSCLC
OVCAR-3 ovarian = system: OVCAR-3 ovarian

| SMILES | GI50 (TK-10 renal) [µM] | TGI (TK-10 renal) [µM] | GI50 (SK-MEL-28 melanoma) [µM] | TGI (SK-MEL-28 melanoma) | GI50 (SK-MEL-5 melanoma) | TGI (SK-MEL-5 melanoma) | GI50 (RPMI-8226 leukemia) | TGI (RPMI-8226 leukemia) | GI50 (SNB-75 CNS) [µM] | TGI (SNB-75 CNS) | GI50 (SW-620 colon) | TGI (SW-620 colon) | GI50 (KM12 colon) | TGI (KM12 colon) | GI50 (NCI-H460 lung) | TGI (NCI-H460 lung) | GI50 (HOP-92 NSCLC) [µM] | GI50 (OVCAR-3 ovarian) | TGI (OVCAR-3 ovarian) | TGI (HOP-92 NSCLC) |
| --- | --- | --- | --- | --- | --- | --- | --- | --- | --- | --- | --- | --- | --- | --- | --- | --- | --- | --- | --- | --- |
| NC(=S)c1cn(C2OC(CO)C(O)C2O)c2ncnc(N)c12 (stereo not drawn) | 0.185 | 0.827 | 0.112 | 0.483 µM | 0.223 µM | 0.975 µM | 0.099 µM | 0.448 µM | 0.223 | 1.84 µM | 0.105 µM | 0.592 µM | 0.0262 µM | 0.205 µM | 0.212 µM | 8.15 µM | 0.154 | 0.173 µM | 1.23 µM |  |
| COc1cc2ccc(C(=O)O)cc2cc1OC |  | > 100 |  | > 100 µM |  | > 100 µM |  | > 100 µM |  | > 100 µM |  | > 100 µM |  | > 100 µM |  | > 100 µM |  |  | > 100 µM | > 100 µM |
| CCc1cc2c(c3[nH]ccc13)[C@@H](C)C[C@H]2C |  | 36.8 |  | 30 µM |  | 31.9 µM |  | 46 µM |  | 38 µM |  | 41 µM |  | 36.5 µM |  | 29.4 µM |  |  | 37.1 µM | 32.6 µM |
| S=C1NC2=C(CCOc3c2ccc2ccccc32)C(c2ccc(Cl)cc2)N1 (stereo not drawn) | 35.4 | > 100 | 41.1 | > 100 µM | 20 µM | 44.9 µM | 25 µM | > 100 µM | 84 | > 100 µM | 43.7 µM | > 100 µM | 47.5 µM | > 100 µM | 30.8 µM | > 100 µM | 30.5 | 20.9 µM | 70.6 µM | > 100 µM |
| Nc1cc2ccncc2c2ccccc12 | 20.2 | 91.1 | 16.6 | 33.6 µM | 15.3 µM | 31.2 µM | 11.6 µM | 63.5 µM | 16.1 | 35.2 µM | 5.19 µM | 89 µM | 11.6 µM | > 100 µM | 8.78 µM | 70.6 µM | 19.6 | 18.8 µM | 76.5 µM | 68.9 µM |
| CCOC(=O)CCC(NC(=O)c1ccc(Nc2nc3cc(N)cc(N)c3nc2-c2ccccc2)cc1)C(=O)OCC (stereo not drawn) | > 57.4 | > 87.3 | 5.76 | 13.3 µM | 12.6 µM | 44.6 µM | 6.43 µM | > 59.3 µM | > 100 | > 100 µM | 45.6 µM | > 100 µM | > 52.9 µM | > 100 µM | > 29.3 µM | > 69.3 µM | 10.8 | 13.4 µM | 39.4 µM | 29.7 µM |
| CCC[CH2][Sn]1([CH2]CCC)[O]N=Cc2ccccc2[O]1 | 0.555 | 1.72 | 0.58 | 1.87 µM | 1.46 µM | 2.83 µM | 0.231 µM | 0.848 µM | 0.359 | 1.54 µM | 0.241 µM | 1.11 µM | 1.47 µM | 2.78 µM | 1.44 µM | 2.76 µM | 1.22 | 0.402 µM | 1.57 µM | 2.49 µM |
| COC(=O)C12CC(NC(=O)c3csc([C@@H](C[C@H](C(C)C)N(C)C(=O)[C@@H](NC(=O)[C@H]4CCCCN4C)C(C)C)OC(C)=O)n3)(C1)C2 | 0.379 | > 33.3 | > 33.3 | > 33.3 µM | 0.000829 µM and 0.00333 µM | 0.0324 µM and 0.173 µM | 0.00131 µM and 0.00333 µM | > 33.3 µM | 0.00333 | > 33.3 µM | 0.000535 µM and 0.00333 µM | > 33.3 µM | 0.00507 µM and 0.00333 µM | > 33.3 µM | 0.00298 µM and 0.00333 µM | > 33.3 µM | > 33.3 | 0.000335 µM and 0.00333 µM | 0.0024 µM and 0.00441 µM | > 33.3 µM |
| CCN(CC)CCn1nc2c3c(cccc3c1=O)-c1ccccc1-2 | 2.09 | 34.4 | 2.56 | 15.6 µM | 1.51 µM | 4.08 µM | 3.19 µM | 24.2 µM | 3.27 | 11.1 µM | 1.89 µM | > 50 µM | 2.84 µM | > 50 µM | 1.49 µM | > 50 µM | 3.11 | 3.78 µM | 45.2 µM | 24.9 µM |
| C/C(=N/OCCC(=O)O)C1CC1 |  | > 100 |  | > 100 µM |  | > 100 µM |  | > 100 µM |  | > 100 µM |  | > 100 µM |  | > 100 µM |  | > 100 µM |  |  | > 100 µM | > 100 µM |
| CCN(CC)c1ccc(/C=C2/NC(=O)NC2=O)cc1 | 9.56 | > 100 | 15.9 | > 100 µM | 3.19 µM | > 74.9 µM | 5.34 µM | > 100 µM | 4.01 | > 100 µM | 3.47 µM | > 100 µM | 1.65 µM | > 24.2 µM | 4.44 µM | > 100 µM | 9.01 | 2.41 µM | 7.18 µM | > 93.1 µM |
| CCCCCCCC(=O)O[C@H]1[C@H]2[C@@H](CC1(C)C)C(=O)[C@]13O[C@H]1C(=O)[C@]1(CO1)[C@]23C |  | 6.47 | 5.87 | 12.7 µM and 6.55 µM | 15.3 µM | 29.9 µM and 10.5 µM | 2.95 µM | 18.3 µM and 3.34 µM | 14.2 | 29.4 µM and 53.6 µM | 1.39 µM | 3.27 µM and 2.74 µM | 19 µM | 40.3 µM and 21.5 µM | 20 µM | 42.6 µM and 12.8 µM | 2.83 | 2.37 µM | 4.55 µM and 6.02 µM | 6.03 µM and 4.81 µM |
| CC(C)C(NCc1c2ccccc2nc2ccccc12)C(=O)O (stereo not drawn) |  | > 100 |  | > 100 µM |  | > 100 µM |  | > 100 µM |  | > 100 µM |  | > 100 µM |  | > 100 µM |  | > 100 µM |  |  | > 100 µM | 61.9 µM |
| CC[C@@]1(O)C(=O)N(CCN(C)C)Cc2c1cc1n(c2=O)Cc2cc3ccccc3nc2-1 | > 100 | > 100 | 34.7 | > 92.8 µM | > 25.2 µM | > 56.1 µM | > 43.9 µM | > 100 µM | 17.4 | > 100 µM | 34.6 µM | > 100 µM | 12.5 µM | > 54.1 µM | 1.82 µM | > 83.1 µM | > 25.9 | > 100 µM | > 100 µM | > 100 µM |
| CC(=O)O[C@H]1Cc2c([nH]c3ccccc23)[C@@H](c2ccc(Cl)cc2)N1C(=O)CCNC(C)(C)C | 5.75 | 10.5 | 4.65 | 9.04 µM | 1.28 µM | 4.61 µM | 2.83 µM | 13.6 µM | 1.64 | 7.52 µM | 4.12 µM | 8.8 µM | 4.33 µM | 9.51 µM | 4.26 µM | 10.4 µM | 1.1 | 3.98 µM | 8.59 µM | 5.61 µM |
| COc1ccc2nc(NC(=O)C(=O)C(C#N)c3ccc(CC#N)cc3)sc2c1 (stereo not drawn) |  | > 100 |  | > 100 µM |  | > 100 µM |  | > 100 µM |  | > 100 µM |  | > 100 µM |  | > 100 µM |  | > 100 µM |  |  | > 100 µM | > 100 µM |
| O=C1NC(=Nc2ccccc2Cl)SC1C(=O)Nc1ccc([N+](=O)[O-])cc1[N+](=O)[O-] (stereo not drawn) |  | > 100 |  | > 100 µM |  | > 100 µM |  | > 100 µM |  | > 100 µM |  | > 100 µM |  | > 100 µM |  | > 100 µM |  |  | > 100 µM | > 100 µM |
| CCc1cc(Nc2nccc(-c3c(-c4ccc(OC)c(C(=O)Nc5c(F)cccc5F)c4)nc4ccccn34)n2)c(OC)cc1N1CCC(N2CCN(S(C)(=O)=O)CC2)CC1 | > 90.4 | > 100 | > 100 | > 100 µM | > 64.8 µM | > 100 µM | > 100 µM | > 100 µM | > 50.1 | > 100 µM | > 100 µM | > 100 µM | > 100 µM | > 100 µM | > 71.7 µM | > 100 µM | 1.14 | > 100 µM | > 100 µM | > 80 µM |
| CCn1c(-c2nonc2N)nc2c(C#CC(C)(C)O)ncc(OCC3CCNCC3)c21 | 8.28 | > 25 | 10 | > 25 µM | 8.87 µM | > 21.2 µM | > 25 µM | > 25 µM | 2.74 | > 23.3 µM | 10.1 µM | > 25 µM | 7.58 µM | > 25 µM | 18.2 µM | > 25 µM | > 25 | 7.07 µM | > 23.6 µM | > 25 µM |
| CCOc1c(Cc2ccccc2)c(=O)n2c3ccccc3n3c(=O)n(C)c(=O)c1c23 |  | > 100 |  | > 100 µM |  | > 100 µM |  | > 100 µM |  | 81.2 µM |  | > 100 µM |  | > 100 µM |  | > 100 µM |  |  | > 100 µM | > 100 µM |
| N#CCCCCCn1c2ccccc2c2c3c(c4c5ccccc5[nH]c4c21)C(=O)N(O)C3=O | 2.2 | 7.88 | 1.8 | 6.61 µM | 0.403 µM | 1.5 µM | 1.04 µM | 3.47 µM | 0.684 | 9.55 µM | 1.01 µM | 34.8 µM | 1.37 µM | 3.39 µM | 1.19 µM | 4.96 µM | 2.46 | 1.47 µM | 5.72 µM | 5.24 µM |
